Source: ChEMBL document CHEMBL1155275, “Synthesis and characterization of 6-deoxy-6-fluoro-D-fructose as a potential compound for imaging breast cancer with PET” (Bioorg Med Chem, 2009)

What was measured:
Assay type in all cases: cell-based
[1] = target: T1, Solute carrier family 2, facilitated glucose transporter member 5 (Homo sapiens, UniProt P22732); test: Inhibition of GLUT5-mediated [14C]D-fructose uptake in human MDA-MB-231 cells by liquid scintillation counting
T1 sequence (P22732 whole entry): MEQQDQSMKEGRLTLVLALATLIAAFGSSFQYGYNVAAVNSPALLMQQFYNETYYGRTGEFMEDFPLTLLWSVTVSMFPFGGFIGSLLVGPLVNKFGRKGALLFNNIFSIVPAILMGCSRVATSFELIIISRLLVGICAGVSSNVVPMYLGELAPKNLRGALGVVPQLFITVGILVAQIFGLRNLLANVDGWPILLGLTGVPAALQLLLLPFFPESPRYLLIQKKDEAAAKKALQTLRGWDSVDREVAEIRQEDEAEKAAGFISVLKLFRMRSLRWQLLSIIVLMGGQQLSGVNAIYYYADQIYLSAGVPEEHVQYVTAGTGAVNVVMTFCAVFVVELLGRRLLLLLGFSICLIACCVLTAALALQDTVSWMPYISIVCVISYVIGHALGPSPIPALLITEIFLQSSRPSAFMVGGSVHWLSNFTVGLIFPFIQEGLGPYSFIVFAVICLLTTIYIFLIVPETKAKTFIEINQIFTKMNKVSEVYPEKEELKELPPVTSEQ

[2] = target: T1, Solute carrier family 2, facilitated glucose transporter member 5; test: Inhibition of GLUT5-mediated [14C]D-fructose uptake in human MCF7 cells by liquid scintillation counting
[3] = target: T2, Solute carrier family 2, facilitated glucose transporter member 2 (Homo sapiens, UniProt P11168); test: Inhibition of GLUT2-mediated [14C]D-glucose uptake in human MCF7 cells by liquid scintillation counting
T2 sequence (P11168 whole entry): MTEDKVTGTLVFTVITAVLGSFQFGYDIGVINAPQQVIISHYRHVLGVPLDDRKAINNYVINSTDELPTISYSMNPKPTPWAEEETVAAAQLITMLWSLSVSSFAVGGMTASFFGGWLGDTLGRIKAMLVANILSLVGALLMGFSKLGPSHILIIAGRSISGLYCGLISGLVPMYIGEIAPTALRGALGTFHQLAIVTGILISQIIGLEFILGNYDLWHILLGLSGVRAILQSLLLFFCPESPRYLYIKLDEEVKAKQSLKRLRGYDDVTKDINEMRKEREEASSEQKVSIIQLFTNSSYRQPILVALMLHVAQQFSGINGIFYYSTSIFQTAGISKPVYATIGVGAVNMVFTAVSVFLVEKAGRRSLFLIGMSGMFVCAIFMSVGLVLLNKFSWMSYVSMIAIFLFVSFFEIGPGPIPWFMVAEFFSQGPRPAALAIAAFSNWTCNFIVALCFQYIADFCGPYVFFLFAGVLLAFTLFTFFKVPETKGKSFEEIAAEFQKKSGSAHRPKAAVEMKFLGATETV

[4] = target: T2, Solute carrier family 2, facilitated glucose transporter member 2; test: Inhibition of GLUT2-mediated [14C]D-glucose uptake in human MDA-MB-231 cells by liquid scintillation counting

## OCC1(O)O[C@H](CF)[C@@H](O)[C@@H]1O (some centres undefined)
[1]
  Ki: 330 µM
[2]
  Ki: 154 µM
[3]
  Ki: 916 µM
[4]
  Ki: 6210 µM
